The values that follow come from patent publication US10526319B2, “Halogenated quinazolin-THF-amines as PDE1 inhibitors” (H. Lundbeck A/S, priority 2014, dated 2020).

Holding throughout (type): biochemical
What all share (conditions): 15 nM tritium labelled cAMP, 1 h at room temperature

One assay addresses PDE1B (Homo sapiens, UniProt Q01064). Kind of assay: PDE1 inhibition assay (SPA, tritium labelled cAMP), PDE1B. The method, then:
(§1) PDE1A, PDE1B and PDE1C assays were performed as follows: the assays was performed in 60 μL samples containing a fixed amount of the PDE1 enzym1 (sufficient to convert 20-25% of the cyclic nucleotide substrate), a buffer (50 mM HEPES pH 7.6; 10 mM MgCl2; 0.02% Tween20), 0.1 mg/ml BSA, 15 nM tritium labelled cAMP and varying amounts of inhibitors. Reactions were initiated by addition of the cyclic nucleotide substrate, and reactions were allowed to proceed for 1 h at room temperature before being terminated through mixing with 20 μL (0.2 mg) yttrium silicate SPA beads (PerkinElmer). The beads were allowed to settle for 1 h in the dark before the plates were counted in a Wallac 1450 Microbeta counter. The measured signals were converted to activity relative to an uninhibited control (100%) and IC50 values were calculated using XlFit (model 205, IDBS).

A further assay addresses PDE1A (Homo sapiens, UniProt P54750). Kind of assay: PDE1 inhibition assay (SPA, tritium labelled cAMP), PDE1A. The method, then: as §1
Another assay concerns the target PDE1C (Homo sapiens, UniProt Q14123). The assay is described as follows: PDE1 inhibition assay (SPA, tritium labelled cAMP), PDE1C. The method, then:
as §1

PDE1A, sequence (P54750 whole entry): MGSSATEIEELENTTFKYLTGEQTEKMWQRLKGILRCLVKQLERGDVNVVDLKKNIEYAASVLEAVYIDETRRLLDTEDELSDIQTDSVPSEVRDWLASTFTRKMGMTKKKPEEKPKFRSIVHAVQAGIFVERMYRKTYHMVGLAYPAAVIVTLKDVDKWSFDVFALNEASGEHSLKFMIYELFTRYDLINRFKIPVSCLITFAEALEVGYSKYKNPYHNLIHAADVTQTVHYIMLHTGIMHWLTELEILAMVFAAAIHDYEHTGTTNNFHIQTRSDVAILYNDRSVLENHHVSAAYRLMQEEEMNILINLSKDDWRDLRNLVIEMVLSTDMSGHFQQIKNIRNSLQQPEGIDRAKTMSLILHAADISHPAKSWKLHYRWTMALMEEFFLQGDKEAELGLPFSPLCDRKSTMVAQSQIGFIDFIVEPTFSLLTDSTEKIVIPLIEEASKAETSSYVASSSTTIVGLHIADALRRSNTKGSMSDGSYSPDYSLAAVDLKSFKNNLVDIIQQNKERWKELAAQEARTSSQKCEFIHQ
PDE1C, sequence (Q14123 whole entry): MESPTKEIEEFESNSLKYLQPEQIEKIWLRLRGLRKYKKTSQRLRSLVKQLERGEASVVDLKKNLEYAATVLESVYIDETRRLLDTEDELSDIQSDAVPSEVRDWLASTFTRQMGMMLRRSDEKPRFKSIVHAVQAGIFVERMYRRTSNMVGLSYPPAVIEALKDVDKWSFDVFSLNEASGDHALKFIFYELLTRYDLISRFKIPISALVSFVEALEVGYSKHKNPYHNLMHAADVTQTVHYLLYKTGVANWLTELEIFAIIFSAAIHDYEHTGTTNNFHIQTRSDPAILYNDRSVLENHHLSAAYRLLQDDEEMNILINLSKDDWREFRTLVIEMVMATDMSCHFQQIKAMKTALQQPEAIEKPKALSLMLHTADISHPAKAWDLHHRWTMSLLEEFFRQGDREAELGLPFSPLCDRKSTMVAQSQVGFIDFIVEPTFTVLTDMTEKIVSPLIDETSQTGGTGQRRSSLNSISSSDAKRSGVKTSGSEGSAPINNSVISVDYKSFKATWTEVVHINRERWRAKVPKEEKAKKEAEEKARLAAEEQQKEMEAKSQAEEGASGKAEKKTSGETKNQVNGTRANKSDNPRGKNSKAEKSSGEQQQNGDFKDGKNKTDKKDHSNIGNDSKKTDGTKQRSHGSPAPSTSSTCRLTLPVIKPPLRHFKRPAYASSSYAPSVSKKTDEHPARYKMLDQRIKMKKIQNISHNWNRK
PDE1B, sequence (Q01064 whole entry): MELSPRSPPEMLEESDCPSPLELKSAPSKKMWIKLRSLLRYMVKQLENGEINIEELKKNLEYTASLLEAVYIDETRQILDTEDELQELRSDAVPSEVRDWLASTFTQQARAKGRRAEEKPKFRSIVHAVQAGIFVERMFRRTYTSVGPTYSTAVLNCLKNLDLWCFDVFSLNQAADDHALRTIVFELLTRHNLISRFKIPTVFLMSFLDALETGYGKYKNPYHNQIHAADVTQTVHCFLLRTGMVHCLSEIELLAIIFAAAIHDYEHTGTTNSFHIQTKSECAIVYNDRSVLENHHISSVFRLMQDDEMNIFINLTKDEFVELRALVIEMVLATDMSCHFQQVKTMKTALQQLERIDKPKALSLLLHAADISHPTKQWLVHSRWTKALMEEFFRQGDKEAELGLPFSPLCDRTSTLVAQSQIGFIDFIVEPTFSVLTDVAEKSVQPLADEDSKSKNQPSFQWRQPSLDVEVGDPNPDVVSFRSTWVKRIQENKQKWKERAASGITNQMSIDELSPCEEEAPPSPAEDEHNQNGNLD

By IC50 is commonly meant the point on the concentration scale where inhibition reaches its midpoint. Low values mean greater potency in that assay, high ones weaker potency in that assay. As to `COc1ccc2c(NC3CCOC3)ncnc2c1F` (single isomer, unassigned) [16 Stereoisomer 2], the IC50 came out at 81 nM at PDE1B, 315 nM against PDE1A and 230 nM at PDE1C.

On to `COc1ccc2c(NC3(C)CCOC3C)ncnc2c1F` (single isomer, unassigned) [17 Stereoisomer 1], for which the values for the IC50 on PDE1B, against PDE1A and against PDE1C were 27 nM, 184 nM and 98 nM, respectively.

With `COc1ccc2c(NC3(C)CCOC3C)ncnc2c1F` (single isomer, unassigned) [17 Stereoisomer 2], the IC50 is 5 nM on PDE1B, 73 nM at PDE1A and 22 nM on PDE1C.

Consider `COc1ccc2c(NC3(C)CCOC3C)ncnc2c1F` (single isomer, unassigned) [17 Stereoisomer 3], for which the IC50 on PDE1B was determined as 100 nM; against PDE1A, 451 nM; at PDE1C it was 390 nM.

For `COc1ccc2c(NC3(C)CCOC3C)ncnc2c1F` (single isomer, unassigned) [17 Stereoisomer 4], the IC50 was 140 nM at PDE1B, 408 nM against PDE1A and 440 nM at PDE1C.

Regarding `COc1ccc2c(N(C)C3CCOC3C)ncnc2c1F` (single isomer, unassigned) [18 Stereoisomer 1], the IC50 came to 510 nM on PDE1B, 1730 nM on PDE1A and 1100 nM against PDE1C.

Take `COc1ccc2c(N(C)C3CCOC3C)ncnc2c1F` (single isomer, unassigned) [18 Stereoisomer 2]: the IC50 was 550 nM against PDE1B, 2470 nM on PDE1A and 1400 nM against PDE1C.

`COc1ccc2c(N(C)C3CCOC3C)ncnc2c1F` (single isomer, unassigned) [18 Stereoisomer 3]: the IC50 on PDE1B amounted to 47 nM; at PDE1A it was 200 nM; against PDE1C, 87 nM.

For the compound `COc1ccc2c(N(C)C3CCOC3C)ncnc2c1F` (single isomer, unassigned) [18 Stereoisomer 4], the IC50 on PDE1B turned out to be 60 nM; on PDE1A, 515 nM; at PDE1C it was 120 nM.

Turning to `COc1ccc2c(N(C)C3(C)CCOC3C)ncnc2c1F` (single isomer, unassigned) [19 Stereoisomer 1], the IC50 was 32 nM against PDE1B, 229 nM against PDE1A and 86 nM against PDE1C.

Regarding `COc1ccc2c(N(C)C3(C)CCOC3C)ncnc2c1F` (single isomer, unassigned) [19 Stereoisomer 2], the IC50 at PDE1B stood at 32 nM; against PDE1A, 185 nM; against PDE1C, 55 nM.

`COc1ccc2c(N(C)C3(C)CCOC3C)ncnc2c1F` (single isomer, unassigned) [19 Stereoisomer 3]: the figures for the IC50 on PDE1B, at PDE1A and on PDE1C were 420 nM, 2490 nM and 1200 nM, respectively.

As for `COc1ccc2c(N(C)C3(C)CCOC3C)ncnc2c1F` (single isomer, unassigned) [19 Stereoisomer 4], the values for the IC50 against PDE1B, at PDE1A and on PDE1C were 10 nM, 97 nM and 34 nM, respectively.
